Results reported in ChEMBL document CHEMBL4342437, “Development and structure-activity relationship study of SHP2 inhibitor containing 3,4,6-trihydroxy-5-oxo-5H-benzo[7]annulene” (Bioorg Med Chem Lett, 2020).
Activity calls are given as the source filed them. The rule behind the calls is not given here.

Legend:
[1] = molecular target: T1, Tyrosine-protein phosphatase non-receptor type 11 (Homo sapiens) (UniProt Q06124); assay: Inhibition of recombinant human SHP2 expressed in Escherichia coli using 2P-IRS1 peptide as substrate at 1 uM after 1 hr by microplate reader analysis relative to control
T1 sequence (whole entry): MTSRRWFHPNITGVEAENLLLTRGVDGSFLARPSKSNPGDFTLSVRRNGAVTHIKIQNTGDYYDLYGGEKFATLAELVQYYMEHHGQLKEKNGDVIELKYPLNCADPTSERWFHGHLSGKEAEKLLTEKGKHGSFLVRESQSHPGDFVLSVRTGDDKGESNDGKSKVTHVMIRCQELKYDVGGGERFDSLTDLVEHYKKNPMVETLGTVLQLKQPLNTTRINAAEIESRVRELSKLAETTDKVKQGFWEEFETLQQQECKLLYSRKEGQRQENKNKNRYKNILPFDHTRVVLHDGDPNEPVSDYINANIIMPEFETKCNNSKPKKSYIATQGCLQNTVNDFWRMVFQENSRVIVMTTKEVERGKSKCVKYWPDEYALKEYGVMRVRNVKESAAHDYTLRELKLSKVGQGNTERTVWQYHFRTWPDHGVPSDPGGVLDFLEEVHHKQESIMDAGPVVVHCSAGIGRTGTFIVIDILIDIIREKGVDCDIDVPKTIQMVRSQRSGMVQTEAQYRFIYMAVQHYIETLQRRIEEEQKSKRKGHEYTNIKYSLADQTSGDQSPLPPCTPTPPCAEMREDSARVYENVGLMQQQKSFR

[2] = molecular target: T2, Tyrosine-protein phosphatase non-receptor type 11 (Homo sapiens, UniProt Q06124); assay: Inhibition of recombinant human SHP2 expressed in Escherichia coli using 2P-IRS1 peptide as substrate after 1 hr by microplate reader analysis
T2 sequence (Q06124 whole entry): T1 sequence (whole entry)

MDA-MB-468 [3] = assay: Antiproliferative activity against human MDA-MB-468 cells assessed as reduction in cell viability after 2 to 4 days by CCK-8 assay; format: functional, cell-based
MDA-MB-468 [4] = assay: Potency index, ratio of SHP099 IC50 to compound IC50 for antiproliferative activity against human MDA-MB-468 cells after 2 to 4 days by CCK-8 assay; format: functional
MDA-MB-468 [5] = assay: Antiproliferative activity against SHP2 knockout human MDA-MB-468 cells with assessed as increase in cell viability at 100 uM after 2 to 4 days by CCK-8 assay relative to MDA-MB-468 cells expressing SHP2; format: functional
MDA-MB-468 [6] = assay: Antiproliferative activity against human MDA-MB-468 3D spheroids assessed as reduction in cell viability after 2 to 4 days by CCK-8 assay; format: functional, cell-based
MDA-MB-468 [7] = assay: Antiproliferative activity against human MDA-MB-468 3D spheroids assessed as reduction in cell viability at 20 uM after 2 to 4 days by CCK-8 assay relative to control; format: functional
[8] = molecular target: T1, Tyrosine-protein phosphatase non-receptor type 11 (Homo sapiens); assay: Non-competitive inhibition of recombinant human SHP2 expressed in Escherichia coli using 2P-IRS1 peptide as substrate up to 200 uM after 1 hr by Lineweaver-Burk plot analysis

inhibition [1] [%]	IC50 [2] [µM]	Structure (SMILES)	further results
0		O=c1c(O)cccc2ccc(O)c(O)c12	
19	6.54	CCOC(=O)c1cc(O)c(=O)c2c(O)c(O)c(F)cc2c1	
93	0.097	O=C(O)c1cc(O)c(=O)c2c(O)c(O)ccc2c1 [7-DESHYDROXYPYROGALLIN-4-CARBOXYLIC ACID]	IC50 (MDA-MB-468 [3]): 5.3 µM; Ratio IC50 (MDA-MB-468 [4]): 5.6; fold change (FC) (MDA-MB-468 [5]): 19.3; IC50 (MDA-MB-468 [6]): 35.8 µM; Activity (MDA-MB-468 [7]): 35.7%; inhibition [8]: Active
50	0.985	CCOC(=O)c1cc(O)c(=O)c2c(O)c(O)ccc2c1	
13	4.11	NC(=O)c1cc(O)c(=O)c2c(O)c(O)ccc2c1	
29	1.57	O=c1c(O)cc(-c2nc(CCl)co2)cc2ccc(O)c(O)c12	
40	1.23	N#Cc1cc(O)c(=O)c2c(O)c(O)ccc2c1	
0		COC(=O)c1cc(OC)c(=O)c2c(OC)c(OC)ccc2c1	
12	7.55	COC(=O)c1cc(O)c(=O)c2c(O)c(O)c(F)cc2c1	
		CC1(N)CCN(c2cnc(-c3cccc(Cl)c3Cl)c(N)n2)CC1	IC50 (MDA-MB-468 [3]): 29.9 µM; IC50 (MDA-MB-468 [6]): 49.6 µM
6	8.66	COC(=O)c1cc(O)c(=O)c2c(O)c(O)c(OC)cc2c1	
2	4.87	CC(C)OC(=O)c1cc(O)c(=O)c2c(O)c(O)ccc2c1	
0		COc1ccc2cc(C(=O)O)cc(OC)c(=O)c2c1OC	
52	0.949	NC(=O)c1cc(O)c(=O)c2c(O)c(O)c(F)cc2c1	
0		COc1cc2cc(C(N)=O)cc(O)c(=O)c2c(O)c1O	
0.47	7.74	CC(C)OC(=O)c1cc(O)c(=O)c2c(O)c(O)c(F)cc2c1	
90	0.277	O=C(O)c1cc(O)c(=O)c2c(O)c(O)c(F)cc2c1	IC50 (MDA-MB-468 [3]): 71 µM; fold change (FC) (MDA-MB-468 [5]): 16.3; IC50 (MDA-MB-468 [6]): 39.2 µM; Activity (MDA-MB-468 [7]): 37.2%
87	0.161	COC(=O)c1cc(O)c(=O)c2c(O)c(O)ccc2c1 [METHYL 7-DESHYDROXYPYROGALLIN-4-CARBOXYLATE]	IC50 (MDA-MB-468 [3]): 4.6 µM; fold change (FC) (MDA-MB-468 [5]): 3; IC50 (MDA-MB-468 [6]): 62.9 µM; Activity (MDA-MB-468 [7]): 27.5%
